The term EC50 denotes the midpoint of the concentration-response curve.

Experiment [1] concerns the target T1, ELIC (Erwinia chrysanthemi ligand-gated ion channel) (Dickeya chrysanthemi, UniProt P0C7B7).
T1 sequence (P0C7B7 1-321): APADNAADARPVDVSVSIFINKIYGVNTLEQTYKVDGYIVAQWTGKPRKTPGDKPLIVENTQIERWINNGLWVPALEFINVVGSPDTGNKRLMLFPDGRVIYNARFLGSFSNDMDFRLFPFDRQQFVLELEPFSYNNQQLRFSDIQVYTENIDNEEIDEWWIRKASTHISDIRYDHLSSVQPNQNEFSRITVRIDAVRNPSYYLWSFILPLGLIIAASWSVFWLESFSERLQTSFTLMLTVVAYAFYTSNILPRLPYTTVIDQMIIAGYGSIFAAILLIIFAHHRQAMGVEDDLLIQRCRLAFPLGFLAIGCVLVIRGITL
The experiment in a line: macroscopic patch-clamp currents. Type of experiment: cell-based. In general terms: In patch-clamp work, channel activity is measured electrically.

In experiment [2] the target is T1, ELIC (Erwinia chrysanthemi ligand-gated ion channel). The experiment in a line: whole-cell patch clamp concentration-response in HEK293 cells. Type of experiment: cell-based.

Take `NCCS` [cysteamine]: the “macroscopic patch-clamp currents (data not shown)” value in experiment [1] was “in our macroscopic records, the rebound current (see below) was more prominent when responses were elicited by cysteamine”.

Regarding `CCCN` [propylamine], the EC50 in experiment [2] came to 500 ± 100 µM.

For the origin of these results see article PMC4278187 (The Journal of General Physiology, 2015).
